Reference: ChEMBL document CHEMBL3885861, “Open TG-GATES”

Organism: Rattus norvegicus
Experiment: Open TG-GATES - Regimen: Single
Assay type: toxicity, organism-based, Sprague-Dawley
Design: regimen Single, gender Male, age 6 weeks
Settings: in vivo, ip, 100 mg/kg, route intraperitoneal injection, dose level Low; for APTT / Bas / Eos / Fbg / Hb / Ht / Lym / MCH / MCHC / MCV / Mono / Neu / PT / Plat / RBC / Ret / WBC: tissue Blood; for KIDNEY_L / KIDNEY_R / KIDNEY_TOTAL: tissue Kidney; for LIVER: tissue Liver; for A/G / ALP / ALT / AST / BUN / CRE / Ca / Cl / DBIL / GLC / IP / K / LDH / Na / PL / RALB / TBIL / TC / TG / TP / gamma-GTP: tissue Plasma

Work on N[C@H]1C(O)O[C@H](CO)[C@@H](O)[C@@H]1O (some centres not stated) [GLUCOSAMINE] yielded a TERMINAL_BW (3 h) of 188.6 g, an APTT (3 h) of 16.4 s and a Bas (3 h) of 0.4%. The Eos (3 h) was 1%, the Fbg (3 h) was 267.2 mg/dL and the Hb (3 h) was 13.3 g/dL. The Ht (3 h) was 41.3%, the Lym (3 h) was 75% and the MCH (3 h) was 21.3 pg. It also gave an MCHC (3 h) of 32.1%, an MCV (3 h) of 66.4 fL and a Mono (3 h) of 3.2%. It also gave a Neu (3 h) of 19.6%, a PT (3 h) of 15.7 s and a Plat (3 h) of 114.1 x10_4/uL. The RBC (3 h) was 623.2 x10_4/ul, the Ret (3 h) was 9.9% and the WBC (3 h) was 83.2 x10_2/uL. It also gave a KIDNEY_L (3 h) of 0.8 g, a KIDNEY_R (3 h) of 0.8 g and a KIDNEY_TOTAL (3 h) of 1.6 g. The LIVER (3 h) was 8.3 g, the A/G (3 h) was 0.9 and the ALP (3 h) was 1288 IU/L. The ALT (3 h) was 42.2 IU/L, the AST (3 h) was 84.6 IU/L and the BUN (3 h) was 10.4 mg/dL. The CRE (3 h) was 0.2 mg/dL, the Ca (3 h) was 10.6 mg/dL and the Cl (3 h) was 108.4 meq/L. The DBIL (3 h) was 0.01 mg/dL, the GLC (3 h) was 171.6 mg/dL and the IP (3 h) was 9.2 mg/dL. For the same molecule, the K (3 h) was 4 meq/L, the LDH (3 h) was 70 IU/L and the Na (3 h) was 143.4 meq/L. For the same molecule, the PL (3 h) was 147.8 mg/dL, the RALB (3 h) was 2.5 g/dL and the TBIL (3 h) was 0.054 mg/dL. For the same molecule, the TC (3 h) was 80.8 mg/dL, the TG (3 h) was 36.8 mg/dL and the TP (3 h) was 5.2 g/dL. It also gave a gamma-GTP (3 h) of 1 IU/L, a TERMINAL_BW (6 h) of 186.1 g and an APTT (6 h) of 17.1 s. The Bas (6 h) was 0%, the Eos (6 h) was 0.8% and the Fbg (6 h) was 259.4 mg/dL. For the same molecule, the Hb (6 h) was 12.8 g/dL, the Ht (6 h) was 39.3% and the Lym (6 h) was 67%. The MCH (6 h) was 21.5 pg, the MCHC (6 h) was 32.7% and the MCV (6 h) was 65.9 fL. It also gave a Mono (6 h) of 3.6%, a Neu (6 h) of 27.6% and a PT (6 h) of 16.9 s. The Plat (6 h) was 114.6 x10_4/uL, the RBC (6 h) was 596 x10_4/ul and the Ret (6 h) was 9.9%. The WBC (6 h) was 82.3 x10_2/uL, the KIDNEY_L (6 h) was 0.8 g and the KIDNEY_R (6 h) was 0.8 g. For the same molecule, the KIDNEY_TOTAL (6 h) was 1.7 g, the LIVER (6 h) was 7.7 g and the A/G (6 h) was 0.9. For the same molecule, the ALP (6 h) was 1431.6 IU/L, the ALT (6 h) was 49.6 IU/L and the AST (6 h) was 94.2 IU/L. It also gave a BUN (6 h) of 8.8 mg/dL, a CRE (6 h) of 0.2 mg/dL and a Ca (6 h) of 10.1 mg/dL. It also gave a Cl (6 h) of 107.8 meq/L, a DBIL (6 h) of 0.006 mg/dL and a GLC (6 h) of 158 mg/dL. It also gave an IP (6 h) of 9.5 mg/dL, a K (6 h) of 3.9 meq/L and an LDH (6 h) of 58.6 IU/L. It also gave a Na (6 h) of 143.2 meq/L, a PL (6 h) of 144.2 mg/dL and an RALB (6 h) of 2.4 g/dL. It also gave a TBIL (6 h) of 0.054 mg/dL, a TC (6 h) of 80.2 mg/dL and a TG (6 h) of 40.2 mg/dL. It also gave a TP (6 h) of 5.1 g/dL, a gamma-GTP (6 h) of 1 IU/L and a TERMINAL_BW (9 h) of 185.8 g. It also gave an APTT (9 h) of 18.8 s, a Bas (9 h) of 0% and an Eos (9 h) of 0.8%. The Fbg (9 h) was 289.4 mg/dL, the Hb (9 h) was 12.9 g/dL and the Ht (9 h) was 39.8%. For the same molecule, the Lym (9 h) was 68.4%, the MCH (9 h) was 21 pg and the MCHC (9 h) was 32.3%. For the same molecule, the MCV (9 h) was 64.8 fL, the Mono (9 h) was 1.8% and the Neu (9 h) was 28.4%. It also gave a PT (9 h) of 16.1 s, a Plat (9 h) of 104 x10_4/uL and an RBC (9 h) of 614.4 x10_4/ul. It also gave a Ret (9 h) of 9.1%, a WBC (9 h) of 60.7 x10_2/uL and a KIDNEY_L (9 h) of 0.8 g. For the same molecule, the KIDNEY_R (9 h) was 0.8 g, the KIDNEY_TOTAL (9 h) was 1.7 g and the LIVER (9 h) was 7.4 g. For the same molecule, the A/G (9 h) was 0.9, the ALP (9 h) was 1454.4 IU/L and the ALT (9 h) was 39 IU/L. For the same molecule, the AST (9 h) was 83.4 IU/L, the BUN (9 h) was 8 mg/dL and the CRE (9 h) was 0.2 mg/dL. The Ca (9 h) was 10.4 mg/dL, the Cl (9 h) was 107 meq/L and the DBIL (9 h) was 0.008 mg/dL. It also gave a GLC (9 h) of 180 mg/dL, an IP (9 h) of 10.4 mg/dL and a K (9 h) of 3.6 meq/L. The LDH (9 h) was 54.8 IU/L, the Na (9 h) was 144 meq/L and the PL (9 h) was 142.2 mg/dL. For the same molecule, the RALB (9 h) was 2.5 g/dL, the TBIL (9 h) was 0.056 mg/dL and the TC (9 h) was 78.8 mg/dL. It also gave a TG (9 h) of 35.6 mg/dL, a TP (9 h) of 5.3 g/dL and a gamma-GTP (9 h) of 1 IU/L. For the same molecule, the TERMINAL_BW (24 h) was 202.9 g, the APTT (24 h) was 18.1 s and the Bas (24 h) was 0.2%. The Eos (24 h) was 1.6%, the Fbg (24 h) was 253.2 mg/dL and the Hb (24 h) was 12.8 g/dL. The Ht (24 h) was 39.2%, the Lym (24 h) was 69.2% and the MCH (24 h) was 20.8 pg. The MCHC (24 h) was 32.7%, the MCV (24 h) was 63.6 fL and the Mono (24 h) was 3%. It also gave a Neu (24 h) of 25.2%, a PT (24 h) of 16.2 s and a Plat (24 h) of 105.9 x10_4/uL. For the same molecule, the RBC (24 h) was 616.8 x10_4/ul, the Ret (24 h) was 8.6% and the WBC (24 h) was 93.3 x10_2/uL. The KIDNEY_L (24 h) was 0.9 g, the KIDNEY_R (24 h) was 0.9 g and the KIDNEY_TOTAL (24 h) was 1.7 g. It also gave an LIVER (24 h) of 9 g, an A/G (24 h) of 0.9 and an ALP (24 h) of 1735.2 IU/L. The ALT (24 h) was 51.8 IU/L, the AST (24 h) was 81.4 IU/L and the BUN (24 h) was 14.2 mg/dL. For the same molecule, the CRE (24 h) was 0.2 mg/dL, the Ca (24 h) was 10.6 mg/dL and the Cl (24 h) was 107.4 meq/L. It also gave a DBIL (24 h) of 0.014 mg/dL, a GLC (24 h) of 181.6 mg/dL and an IP (24 h) of 8.5 mg/dL. The K (24 h) was 4.2 meq/L, the LDH (24 h) was 134.8 IU/L and the Na (24 h) was 143.8 meq/L. It also gave a PL (24 h) of 160.4 mg/dL, an RALB (24 h) of 2.6 g/dL and a TBIL (24 h) of 0.036 mg/dL. For the same molecule, the TC (24 h) was 83.4 mg/dL, the TG (24 h) was 76.6 mg/dL and the TP (24 h) was 5.6 g/dL. The gamma-GTP (24 h) was 1 IU/L.
